Assay results taken from US9290777B2, “Putative cytokinin receptor and methods for use thereof” (NATIONAL UNIVERSITY OF SINGAPORE, priority 2007, dated 2016).
“Also recorded” adds a separate entry of the source.

Tested on: STM
Assay: qRT-PCR of cytokinin responsive gene after BA pulse, fold change vs untreated wild type
Type: cell-based, Arabidopsis thaliana
Description: For quantitative real-time PCR (qRT-PCR) analysis of cytokinin-inducible gene expression, seeds were germinated on MS medium with 3% (w/v) sucrose and grown for 6 days. Cytokinin treatment was carried out by incubating seedlings in the same MS+sucrose liquid medium (no agar) supplemented with 0, 0.01, 0.1, 1 or 5 μM [solubilized in 0.1% dimethylsulfoxide (DMSO) and diluted with the MS medium] for 5 min, 15 min, 30 min or 1 h. The control seedlings were incubated with DMSO (0.1%, the concentration used to dissolve cytokinins for the treatment) for the corresponding durations and used for expression analysis. Before RNA preparation, WT, OE and AS seedlings were pooled and stored in RNAlater solution (Qiagen, Valencia, Calif.). Total RNA was extracted using the Rneasy Plant Mini Kit (Qiagen). SYBRgreen RT-PCR reagents (Applied Biosystems) were used to synthesize double-stranded cDNA. The number of transcripts present in biological replicates each of WT, OE and AS seedlings, with or without BA and DMSO, was determined from three independent replicates. Fold induction of the transcripts was calculated according to the manufacturer's instructions (ABI Prism 7700 Sequence Detection System, User Bulletin #2).

For `c1ccc(CNc2ncnc3nc[nH]c23)cc1` [benzyladenine], the “STM transcripts in OE lines compared to untreated wild type” value (5 μM BA, 1 h, OE lines (e.g. OE1, OE12), listed as BA) was “less than a two fold change; also recorded: no significant difference”, the STM fold change (BA 0.01 μM, 5 min, AS1, ↑ up) was 3.23↑ and the STM fold change (BA 0.01 μM, 5 min, AS8, ↑ up) was 5.2↑. For the same molecule, the STM fold change (BA 0.01 μM, 5 min, AS21, ↑ up) was 7.1↑, the STM fold change (BA 0.01 μM, 5 min, OE1, ↓ down) was 3.41↓ and the STM fold change (BA 0.01 μM, 5 min, OE12, ↓ down) was 4.97↓. For the same molecule, the STM fold change (BA 0.01 μM, 5 min, OE18, ↓ down) was 6.23↓, the STM fold change (BA 0.01 μM, 5 min, Wild type, ↑ up) was 2.45↑ and the STM fold change (BA 0.01 μM, 15 min, AS1, ↑ up) was 3.67↑. For the same molecule, the STM fold change (BA 0.01 μM, 15 min, AS8, ↑ up) was 5.58↑, the STM fold change (BA 0.01 μM, 15 min, AS21, ↑ up) was 7.48↑ and the STM fold change (BA 0.01 μM, 15 min, OE1, ↓ down) was 3.23↓. For the same molecule, the STM fold change (BA 0.01 μM, 15 min, OE12, ↓ down) was 4.65↓, the STM fold change (BA 0.01 μM, 15 min, OE18, ↓ down) was 6.02↓ and the STM fold change (BA 0.01 μM, 15 min, Wild type, ↑ up) was 2.54↑. The STM fold change (BA 0.01 μM, 30 min, AS1, ↑ up) was 3.91↑, the STM fold change (BA 0.01 μM, 30 min, AS8, ↑ up) was 5.95↑ and the STM fold change (BA 0.01 μM, 30 min, AS21, ↑ up) was 7.69↑. For the same molecule, the STM fold change (BA 0.01 μM, 30 min, OE1, ↓ down) was 3.01↓, the STM fold change (BA 0.01 μM, 30 min, OE12, ↓ down) was 4.31↓ and the STM fold change (BA 0.01 μM, 30 min, OE18, ↓ down) was 5.91↓. The STM fold change (BA 0.01 μM, 30 min, Wild type, ↑ up) was 3.01↑, the STM fold change (BA 0.01 μM, 1 h, AS1, ↑ up) was 4.1↑ and the STM fold change (BA 0.01 μM, 1 h, AS8, ↑ up) was 6.06↑. The STM fold change (BA 0.01 μM, 1 h, AS21, ↑ up) was 8.05↑, the STM fold change (BA 0.01 μM, 1 h, OE1, ↓ down) was 2.81↓ and the STM fold change (BA 0.01 μM, 1 h, OE12, ↓ down) was 3.96↓. The STM fold change (BA 0.01 μM, 1 h, OE18, ↓ down) was 5.82↓, the STM fold change (BA 0.01 μM, 1 h, Wild type, ↑ up) was 3.2↑ and the STM fold change (BA 0.1 μM, 5 min, AS1, ↑ up) was 4.24↑. The STM fold change (BA 0.1 μM, 5 min, AS8, ↑ up) was 6.22↑, the STM fold change (BA 0.1 μM, 5 min, AS21, ↑ up) was 8.21↑ and the STM fold change (BA 0.1 μM, 5 min, OE1, ↓ down) was 3.2↓. For the same molecule, the STM fold change (BA 0.1 μM, 5 min, OE12, ↓ down) was 3.81↓, the STM fold change (BA 0.1 μM, 5 min, OE18, ↓ down) was 5.79↓ and the STM fold change (BA 0.1 μM, 5 min, Wild type, ↑ up) was 3.56↑. The STM fold change (BA 0.1 μM, 15 min, AS1, ↑ up) was 4.49↑, the STM fold change (BA 0.1 μM, 15 min, AS8, ↑ up) was 6.39↑ and the STM fold change (BA 0.1 μM, 15 min, AS21, ↑ up) was 8.36↑. For the same molecule, the STM fold change (BA 0.1 μM, 15 min, OE1, ↓ down) was 3.14↓, the STM fold change (BA 0.1 μM, 15 min, OE12, ↓ down) was 3.73↓ and the STM fold change (BA 0.1 μM, 15 min, OE18, ↓ down) was 5.61↓. The STM fold change (BA 0.1 μM, 15 min, Wild type, ↑ up) was 3.68↑, the STM fold change (BA 0.1 μM, 30 min, AS1, ↑ up) was 4.79↑ and the STM fold change (BA 0.1 μM, 30 min, AS8, ↑ up) was 6.63↑. For the same molecule, the STM fold change (BA 0.1 μM, 30 min, AS21, ↑ up) was 8.58↑, the STM fold change (BA 0.1 μM, 30 min, OE1, ↓ down) was 2.92↓ and the STM fold change (BA 0.1 μM, 30 min, OE12, ↓ down) was 3.49↓. The STM fold change (BA 0.1 μM, 30 min, OE18, ↓ down) was 5.34↓, the STM fold change (BA 0.1 μM, 30 min, Wild type, ↑ up) was 3.85↑ and the STM fold change (BA 0.1 μM, 1 h, AS1, ↑ up) was 4.97↑. For the same molecule, the STM fold change (BA 0.1 μM, 1 h, AS8, ↑ up) was 6.94↑, the STM fold change (BA 0.1 μM, 1 h, AS21, ↑ up) was 8.87↑ and the STM fold change (BA 0.1 μM, 1 h, OE1, ↓ down) was 2.76↓. The STM fold change (BA 0.1 μM, 1 h, OE12, ↓ down) was 3.01↓, the STM fold change (BA 0.1 μM, 1 h, OE18, ↓ down) was 5.01↓ and the STM fold change (BA 0.1 μM, 1 h, Wild type, ↑ up) was 3.96↑. For the same molecule, the STM fold change (BA 1.0 μM, 5 min, AS1, ↑ up) was 5.53↑, the STM fold change (BA 1.0 μM, 5 min, AS8, ↑ up) was 7.8↑ and the STM fold change (BA 1.0 μM, 5 min, AS21, ↑ up) was 8.89↑. For the same molecule, the STM fold change (BA 1.0 μM, 5 min, OE1, ↓ down) was 2.86↓, the STM fold change (BA 1.0 μM, 5 min, OE12, ↓ down) was 2.89↓ and the STM fold change (BA 1.0 μM, 5 min, OE18, ↓ down) was 4.26↓. The STM fold change (BA 1.0 μM, 5 min, Wild type, ↑ up) was 4.11↑, the STM fold change (BA 1.0 μM, 15 min, AS1, ↑ up) was 5.78↑ and the STM fold change (BA 1.0 μM, 15 min, AS8, ↑ up) was 7.93↑. For the same molecule, the STM fold change (BA 1.0 μM, 15 min, AS21, ↑ up) was 9.02↑, the STM fold change (BA 1.0 μM, 15 min, OE1, ↓ down) was 2.61↓ and the STM fold change (BA 1.0 μM, 15 min, OE12, ↓ down) was 2.56↓. For the same molecule, the STM fold change (BA 1.0 μM, 15 min, OE18, ↓ down) was 4.11↓, the STM fold change (BA 1.0 μM, 15 min, Wild type, ↑ up) was 4.36↑ and the STM fold change (BA 1.0 μM, 30 min, AS1, ↑ up) was 5.83↑. The STM fold change (BA 1.0 μM, 30 min, AS8, ↑ up) was 7.99↑, the STM fold change (BA 1.0 μM, 30 min, AS21, ↑ up) was 9.25↑ and the STM fold change (BA 1.0 μM, 30 min, OE1, ↓ down) was 2.39↓. For the same molecule, the STM fold change (BA 1.0 μM, 30 min, OE12, ↓ down) was 2.87↓, the STM fold change (BA 1.0 μM, 30 min, OE18, ↓ down) was 4.01↓ and the STM fold change (BA 1.0 μM, 30 min, Wild type, ↑ up) was 4.69↑. For the same molecule, the STM fold change (BA 1.0 μM, 1 h, AS1, ↑ up) was 6.21↑, the STM fold change (BA 1.0 μM, 1 h, AS8, ↑ up) was 8.07↑ and the STM fold change (BA 1.0 μM, 1 h, AS21, ↑ up) was 9.66↑. For the same molecule, the STM fold change (BA 1.0 μM, 1 h, OE1, ↓ down) was 2.11↓, the STM fold change (BA 1.0 μM, 1 h, OE12, ↓ down) was 2.62↓ and the STM fold change (BA 1.0 μM, 1 h, OE18, ↓ down) was 3.82↓. For the same molecule, the STM fold change (BA 1.0 μM, 1 h, Wild type, ↑ up) was 4.97↑, the STM fold change (BA 5.0 μM, 5 min, AS1, ↑ up) was 6.01↑ and the STM fold change (BA 5.0 μM, 5 min, AS8, ↑ up) was 8.46↑. For the same molecule, the STM fold change (BA 5.0 μM, 5 min, AS21, ↑ up) was 9.33↑, the STM fold change (BA 5.0 μM, 5 min, OE1, ↓ down) was 2.29↓ and the STM fold change (BA 5.0 μM, 5 min, OE12, ↓ down) was 2.49↓. For the same molecule, the STM fold change (BA 5.0 μM, 5 min, OE18, ↓ down) was 3.35↓, the STM fold change (BA 5.0 μM, 5 min, Wild type, ↑ up) was 5.62↑ and the STM fold change (BA 5.0 μM, 15 min, AS1, ↑ up) was 6.21↑. The STM fold change (BA 5.0 μM, 15 min, AS8, ↑ up) was 8.63↑, the STM fold change (BA 5.0 μM, 15 min, AS21, ↑ up) was 9.44↑ and the STM fold change (BA 5.0 μM, 15 min, OE1, ↓ down) was 2.11↓. For the same molecule, the STM fold change (BA 5.0 μM, 15 min, OE12, ↓ down) was 2.13↓, the STM fold change (BA 5.0 μM, 15 min, OE18, ↓ down) was 3.28↓ and the STM fold change (BA 5.0 μM, 15 min, Wild type, ↑ up) was 5.89↑. For the same molecule, the STM fold change (BA 5.0 μM, 30 min, AS1, ↑ up) was 6.43↑, the STM fold change (BA 5.0 μM, 30 min, Wild type, ↑ up) was 5.99↑ and the “STM transcripts, dose dependence” value (BA 0.01-5 μM pulse, 5 min-1 h) was “dose-dependent increase”.
